Results: PubChem BioAssay AID248 (DTP/NCI, 2004)
Where “and” joins values, the source holds several entries; their conditions need not be identical. Identical values can stand only once. Toxic doses and inconclusive results are not listed. Rule as the data show it: active = T/C of 150% or more; inactive = T/C below 125%.

Test system: L1210 leukemia ip in BDF1 mice, survival T/C
Assay: NCI In Vivo Anticancer Drug Screen. Data for tumor model L1210 Leukemia (intraperitoneal) in B6D2F1 (BDF1) mice
Details: endpoint: mean survival time, higher = longer survival
Outline: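 Survival endpoint. Drug-treated group vs vehicle group, expressed as T divided by C. Tumor passaged by transplantation.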

[1] = dose: 100.0 mg/kg/injection, schedule: Q01DX009 (ip), vehicle: Klucel (hydroxypropylcellulose) (HPC)
[2] = dose: 100.0 mg/kg/injection, schedule: Q04DX003 (ip), vehicle: Klucel (hydroxypropylcellulose) (HPC)
[3] = dose: 200.0 mg/kg/injection, schedule: Q01DX009 (ip), vehicle: Klucel (hydroxypropylcellulose) (HPC)
[4] = dose: 200.0 mg/kg/injection, schedule: Q04DX003 (ip), vehicle: Klucel (hydroxypropylcellulose) (HPC)
[5] = dose: 400.0 mg/kg/injection, schedule: Q04DX003 (ip), vehicle: Klucel (hydroxypropylcellulose) (HPC)
[6] = dose: 100.0 mg/kg/injection, schedule: Q01DX001 (ip), vehicle: saline with Tween-80
[7] = dose: 200.0 mg/kg/injection, schedule: Q01DX001 (ip), vehicle: saline with Tween-80
[8] = dose: 400.0 mg/kg/injection, schedule: Q01DX001 (ip), vehicle: saline with Tween-80
[9] = dose: 100.0 mg/kg/injection, schedule: Q04DX003 (ip), vehicle: saline
[10] = dose: 200.0 mg/kg/injection, schedule: Q04DX003 (ip), vehicle: saline
[11] = dose: 100.0 mg/kg/injection, schedule: Q04DX003 (ip), vehicle: saline with Tween-80
[12] = dose: 200.0 mg/kg/injection, schedule: Q04DX003 (ip), vehicle: saline with Tween-80
[13] = dose: 400.0 mg/kg/injection, schedule: Q04DX003 (ip), vehicle: saline with Tween-80
[14] = dose: 100.0 mg/kg/injection, schedule: Q01DX009 (ip), vehicle: saline
[15] = dose: 200.0 mg/kg/injection, schedule: Q01DX009 (ip), vehicle: saline
[16] = dose: 100.0 mg/kg/injection, schedule: Q01DX001 (ip), vehicle: saline
[17] = dose: 200.0 mg/kg/injection, schedule: Q01DX001 (ip), vehicle: saline
[18] = dose: 400.0 mg/kg/injection, schedule: Q01DX001 (ip), vehicle: saline

Measured: T/C

COC(=O)CC(=O)c1ccc(C)cc1
inactive: [1] 101 % of control | [2] 108 % of control | [3] 95 % of control | [4] 111 % of control | dose: 400.0 mg/kg/injection, schedule: Q01DX009 (ip), vehicle: Klucel (hydroxypropylcellulose) (HPC) 104 % of control | [5] 95 % of control

CCCCC(CC1CCCCC1)C(=O)O (configuration not stated)
inactive: [6] 91 % of control | [7] 95 % of control | [8] 88 % of control

O=C(CCl)Nc1ncn[nH]1
inactive: dose: 75.0 mg/kg/injection, schedule: Q01DX001 (ip), vehicle: carboxymethylcellulose (CMC) 101 % of control | dose: 150.0 mg/kg/injection, schedule: Q01DX001 (ip), vehicle: carboxymethylcellulose (CMC) 97 % of control | dose: 300.0 mg/kg/injection, schedule: Q01DX001 (ip), vehicle: carboxymethylcellulose (CMC) 107 % of control

CC(C)(N)COC(=O)c1ccc([N+](=O)[O-])cc1
inactive: dose: 50.0 mg/kg/injection, schedule: Q01DX009 (ip), vehicle: acetone 101 % of control | dose: 100.0 mg/kg/injection, schedule: Q01DX009 (ip), vehicle: acetone 101 % of control | dose: 200.0 mg/kg/injection, schedule: Q01DX009 (ip), vehicle: acetone 95 % of control

CCCCN1CCCC(O)C1 (configuration not stated)
inactive: [9] 97 % of control | [10] 104 % of control

CN(C)c1ccc(C(C#N)(c2ccc(N(C)C)cc2)c2ccc(N(C)C)cc2)cc1
inactive: [1] 95 % of control | [2] 103 % of control | [3] 97 % of control | [4] 106 % of control | [5] 90 % of control

CCCCN(CCO)C(C#CC(C)(C)O)C(C)C (configuration not stated)
inactive: [11] 95 % of control | [12] 101 % of control

O=C(Nc1ccc(F)cc1)Nc1ccc(Nc2ccccc2)cc1
inactive: dose: 100.0 mg/kg/injection, schedule: Q01DX001 (ip), vehicle: carboxymethylcellulose (CMC) 91 % of control | dose: 100.0 mg/kg/injection, schedule: Q01DX009 (ip), vehicle: carboxymethylcellulose (CMC) 97 % of control | dose: 100.0 mg/kg/injection, schedule: Q04DX002 (ip), vehicle: carboxymethylcellulose (CMC) 93 % of control and 86 % of control | dose: 100.0 mg/kg/injection, schedule: Q04DX003 (ip), vehicle: carboxymethylcellulose (CMC) 88 % of control | dose: 200.0 mg/kg/injection, schedule: Q01DX001 (ip), vehicle: carboxymethylcellulose (CMC) 91 % of control | dose: 200.0 mg/kg/injection, schedule: Q01DX009 (ip), vehicle: carboxymethylcellulose (CMC) 87 % of control | dose: 200.0 mg/kg/injection, schedule: Q04DX002 (ip), vehicle: carboxymethylcellulose (CMC) 98 % of control and 86 % of control | dose: 200.0 mg/kg/injection, schedule: Q04DX003 (ip), vehicle: carboxymethylcellulose (CMC) 93 % of control | dose: 400.0 mg/kg/injection, schedule: Q01DX001 (ip), vehicle: carboxymethylcellulose (CMC) 91 % of control | dose: 400.0 mg/kg/injection, schedule: Q01DX009 (ip), vehicle: carboxymethylcellulose (CMC) 92 % of control and 87 % of control | dose: 400.0 mg/kg/injection, schedule: Q04DX002 (ip), vehicle: carboxymethylcellulose (CMC) 88 % of control | dose: 400.0 mg/kg/injection, schedule: Q04DX003 (ip), vehicle: carboxymethylcellulose (CMC) 88 % of control

CNS(=O)(=O)CCC1NC(=O)NC1=O (configuration not stated)
inactive: [11] 100 % of control | [12] 105 % of control | [13] 101 % of control

CC1CN=C(c2ccc(NC(=O)Nc3ccc(C4=NCC(C)N4)cc3)cc2)N1 (configuration not stated)
inactive: dose: 0.62 mg/kg/injection, schedule: Q01DX Z (ip), vehicle: saline 109 % of control | dose: 1.25 mg/kg/injection, schedule: Q01DX Z (ip), vehicle: saline 114 % of control | dose: 2.5 mg/kg/injection, schedule: Q01DX Z (ip), vehicle: saline 118 % of control | dose: 5.0 mg/kg/injection, schedule: Q01DX Z (ip), vehicle: saline 111 % of control

COC(=O)CNC(=O)C(C)NC(=O)OCc1ccccc1 (configuration not stated)
inactive: [11] 102 % of control | [12] 98 % of control | [13] 100 % of control

C/C(=N/C(=O)NN)c1ccc(Cl)cc1
inactive: [6] 108 % of control | [11] 93 % of control | [7] 95 % of control | [12] 98 % of control | [8] 101 % of control

O=C(O)c1cc(Br)c2ccccc2c1O
inactive: dose: 25.0 mg/kg/injection, schedule: Q01DX009 (ip), vehicle: saline sonified 103 % of control | dose: 50.0 mg/kg/injection, schedule: Q01DX009 (ip), vehicle: saline sonified 108 % of control | dose: 100.0 mg/kg/injection, schedule: Q01DX009 (ip), vehicle: saline sonified 100 % of control | [2] 104 % of control

O=C(O)/C=C/C(=O)Nc1ccccc1-n1cccc1
inactive: [14] 106 % of control | [15] 97 % of control

CCN(CC)CCCC(C)Nc1cc(N)nc2nc(-c3ccc(Cl)cc3)c(-c3ccc(Cl)cc3)nc12 (configuration not stated)
inactive: dose: 37.5 mg/kg/injection, schedule: Q01DX009 (ip), vehicle: Klucel (hydroxypropylcellulose) (HPC) 95 % of control | dose: 37.5 mg/kg/injection, schedule: Q04DX003 (ip), vehicle: Klucel (hydroxypropylcellulose) (HPC) 98 % of control | dose: 75.0 mg/kg/injection, schedule: Q01DX001 (ip), vehicle: other 97 % of control | dose: 75.0 mg/kg/injection, schedule: Q01DX009 (ip), vehicle: Klucel (hydroxypropylcellulose) (HPC) 90 % of control | dose: 75.0 mg/kg/injection, schedule: Q04DX003 (ip), vehicle: Klucel (hydroxypropylcellulose) (HPC) 102 % of control | dose: 150.0 mg/kg/injection, schedule: Q04DX003 (ip), vehicle: Klucel (hydroxypropylcellulose) (HPC) 93 % of control

O=c1cc(CO)oc(C(Nc2ccccc2)c2ccccc2)c1O (configuration not stated)
inactive: [16] 91 % of control | [17] 97 % of control | [18] 95 % of control

COC1OC(CN(CCOS(C)(=O)=O)S(C)(=O)=O)C2OC(C)(C)OC12 (configuration not stated)
inactive: dose: 50.0 mg/kg/injection, schedule: Q01DX009 (ip), vehicle: saline 95 % of control | dose: 50.0 mg/kg/injection, schedule: Q04DX003 (ip), vehicle: Klucel (hydroxypropylcellulose) (HPC) 116 % of control | [14] 97 % of control | [2] 102 % of control | [15] 95 % of control | [4] 121 % of control | dose: 400.0 mg/kg/injection, schedule: Q01DX009 (ip), vehicle: saline 95 % of control | [5] 104 % of control

CN(C1CCCC1)C1CCCC1
inactive: dose: 10.0 mg/kg/injection, schedule: Q01DX009 (ip), vehicle: Klucel (hydroxypropylcellulose) (HPC) 106 % of control | dose: 10.0 mg/kg/injection, schedule: Q04DX003 (ip), vehicle: Klucel (hydroxypropylcellulose) (HPC) 102 % of control | dose: 20.0 mg/kg/injection, schedule: Q01DX009 (ip), vehicle: Klucel (hydroxypropylcellulose) (HPC) 104 % of control | dose: 20.0 mg/kg/injection, schedule: Q04DX003 (ip), vehicle: Klucel (hydroxypropylcellulose) (HPC) 94 % of control | dose: 40.0 mg/kg/injection, schedule: Q01DX009 (ip), vehicle: Klucel (hydroxypropylcellulose) (HPC) 102 % of control | dose: 40.0 mg/kg/injection, schedule: Q04DX003 (ip), vehicle: Klucel (hydroxypropylcellulose) (HPC) 96 % of control

Cc1cc(O)ccc1C1=NCC(C)(C)S1
inactive: dose: 100.0 mg/kg/injection, schedule: Q04DX002 (ip), vehicle: saline 93 % of control | dose: 200.0 mg/kg/injection, schedule: Q04DX002 (ip), vehicle: saline 100 % of control | dose: 400.0 mg/kg/injection, schedule: Q04DX002 (ip), vehicle: saline 103 % of control

O=C1NC(=S)NC(=O)C1=Cc1ccncc1
inactive: [16] 105 % of control | [17] 102 % of control | [18] 98 % of control

NC1CCS(=O)(=O)C1 (configuration not stated)
inactive: [16] 95 % of control | [17] 98 % of control | [18] 101 % of control

CCC(CC)(c1ccccc1)C(O)c1ccccc1 (configuration not stated)
inactive: dose: 50.0 mg/kg/injection, schedule: Q01DX001 (ip), vehicle: saline 97 % of control | [16] 97 % of control | [17] 103 % of control | [18] 101 % of control

O=Cc1ccc(O)cn1
inactive: [9] 92 % of control | [10] 87 % of control | dose: 400.0 mg/kg/injection, schedule: Q04DX003 (ip), vehicle: saline 92 % of control

Nc1ncnc2c1ncn2C1OC(COS(N)(=O)=O)C(O)C1O (configuration not stated)
inactive: dose: 0.5 mg/kg/injection, schedule: Q01DX001 (ip), vehicle: saline 113 % of control
